Reference: PMC7587333, “Synthesis, Molecular Docking, and In Vitro Boron Neutron Capture Therapy Assay of Carboranyl Sinomenine” (Molecules, 2020)
Where two headings read alike, the source gives them in different places.

Tests used:
[1] = Solubility in organic solvents; format: physicochemical; settings: organic solvents such as DMF, THF and DMSO
Excerpt: Carboranyl sinomenine product was synthesized by a straightforward method as shown in Scheme 1. In this process, sinomenine anion was generated in situ from the reaction of sinomenine (1) with the excess quantity of potassium carbonate in N,N-dimethyl formide (DMF) solvent at room temperature under argon atmosphere. The resulting sinomenine anion reacted with 4-(methyl-ortho-carboranyl)-n-butyl iodide (2), prepared according to the literature method, to produce the carboranyl sinomenine (3) as a colorless solid in 54.3% yield after recrystallization from tetrahydrofuran (THF) solvent.

[2] = test system: rat fibroblast-like synoviocytes (FLS) cells; assay: In vitro survival study (BNCS, thermal neutron irradiation, colony formation), FLS cells; format: cell-based; settings: same operating conditions as L-BPA
Excerpt: (§1) The preliminary in vitro killing effects of compound 3 were examined by using rat C6 gliosarcoma tumor cells and fibroblast-like synoviocytes (FLS) cells, respectively. The in vitro survival study was completed with the thermal neutron fluence ranging from 0 to 4.2 × 10^12 n/cm^2. The γ-ray dose presented in the experiment was monitored by thermoluminescent dosimeters (TLDs) attached to the tubes and ranged from 0 to 5 Sv. […] A low surviving fraction of around 0.01 was obtained by compound 3 after irradiation for 50 min.
(§2) The in vitro assessments were carried out according to methods reported in the literature. […] The inability of cells to adhere to Teflon allows precise quantitative manipulation of cells without trypsinization. […] The thermal neutron fluence was determined by averaging the activity of two gold films symmetrically attached to the Teflon tube surface along the thermal neutron axis. […] The neutron absorbed dose (Gy) was calculated using the flux-to-dose conversion factor [39, 40]. […] The γ-ray dose was monitored by thermoluminescent dosimeters (TLDs) (Kyoto, Japan) attached to the tubes, and it ranged from 0 to 5 Sv. […] The colonies were fixed and stained with a 10% formaldehyde/1% toluidine blue solution and then counted microscopically.
(§3) The in vitro BNCS was carried out in triplicate. […] The significance of the differences in survival rates was assessed by Student’s t-test. […]

rat FLS cells [3] = assay: Cytotoxicity study, standard MTT assay; format: cell-based; settings: 3 days of continuous exposure, no irradiation, read-out: IC50 (growth inhibition, cytotoxicity)
Experimental: The IC50 (moles/liter, M), the concentration that inhibited the growth of rat FLS cells by 50% after 3 days of continuous exposure, was determined using the standard MTT assay. Suspensions of 4.9 × 10^5 of rat fibroblast-like synoviocytes cells /200 μL MEM containing 20% FCS were incubated for 3 days using 96-well culture plates with various concentrations of the samples in dimethyl sulfoxide (DMSO). The damaged cells were detected at 490 nm optical absorbance by Aqueous One Solution Cell Proliferation Assay.
Figure S-4. 1H NMR of 3 in DMSO-d6.
2. Cytotoxicity study. For IC50 analysis, the standard MTT method was used to analyze IC50 of compound 3. The IC50 determinations were performed in the presence of serial dilutions of inhibitor (1000 μM to 3.906 µM, 1% DMSO, final) in complete reaction buffer and incubated for […].
Figure S-5. IC50 dose responsive curve of 3 for rat FLS cells. […]

rat C6 glioma cells [4] = assay: Uptake of boron by rat C6 glioma cells (ICP-AES); format: cell-based; settings: 24 h culture with boron agent
Excerpt: (§4) The rat C6 glioma cells and fibroblast-like synoviocytes (FLS) cells were used to conduct the boron uptake of 3. The boron uptakes of clinically used L-BPA and BSH were also listed for comparation. The results reveal that 3 was able to permeate both C6 glioma cells and FLS cells. […] The higher membrane permeability provides enhanced boron concentration in the cell lines. […] Nevertheless, the detailed mechanism of 3 crossing cell membrane warrants further investigation.
(§5) According to literature, 3.7 × 10^8 rat FLS cells or 2.6 × 10^7 rat C6 glioma cells were seeded and cultured at […] (37 °C, 5% CO2) for 24 hrs. This culture fluid was removed therefrom by suction, culture fluids containing 1.5 mM of boron agent 3 with the boron concentrations of 3.0 mM, 1.5 mM, 18.0 mM, and 1.5 mM, respectively, were added and continued culturing for 24 h under the same conditions. These culture fluids were removed by suction and the cells were washed three times with PBS and treated with trypsin to recover the cells. The number of cells recovered was counted, and HNO3 (2N, 1.5 mL) was added and the resulting mixture was heated at 80 °C for 12 h. After filtering using a membrane filter, the boron concentration was determined by ICP-AES (Singapore).

rat C6 gliosarcoma cells = assay: In vitro survival study (BNCT, thermal neutron irradiation, colony formation), C6 cells; format: cell-based; settings: C6 gliosarcoma tumor cells
Excerpt: as §1, §2, §3

rat FLS cells [5] = assay: Uptake of boron by rat fibroblast-like synoviocytes cells (ICP-AES); format: cell-based; settings: 24 h culture with boron agent
Excerpt: as §4, §5

rat C6 glioma cells [6] = test system: rat C6 glioma cells; parameters: method as in PMID 31260876; settings: cited from earlier work
rat FLS cells [7] = test system: rat FLS cells; parameters: method as in PMID 15980490; settings: cited from earlier work
malignant cells = settings: background statement, no reference given; cited from earlier work

Molecule | Solubility [1] | Killing effects enhanced compared with L-BPA [2] | IC50 (rat FLS cells [3]) | Boron amounts delivered to the cells (rat C6 glioma cells [4]) | Surviving fraction (rat C6 gliosarcoma cells; after thermal neutron irradiation for 50 min) | Killing effect improved compared with L-BPA (rat C6 gliosarcoma cells; thermal neutron irradiation, same operating conditions as L-BPA) | Boron amounts delivered to the cells (rat FLS cells [5]) | Boron amounts delivered to the cells (rat C6 glioma cells [6]) | Boron amounts delivered to the cells (rat FLS cells [7]) | Concentration in malignant cells relative to blood and other healthy cells (malignant cells)
methylcarboranyl-n-butyl sinomenine [Compound 3] | soluble in various organic solvents | approximately three times | 310.4 ± 0.3 µM | 4.25 μg/10^7 cells | around 0.01 | approximately nine times | 3.04 μg/10^7 cells | – | – | –
sodium borocaptate [BSH] | – | – | – | – | – | – | – | 2.14 [21] μg/10^7 cells | 1.82 [31] μg/10^7 cells | –
N[C@@H](Cc1ccc(B(O)O)cc1)C(=O)O [L-BPA, 4-borono-L-phenylalanine] | – | – | – | – | – | – | – | 0.67 [21] μg/10^7 cells | 0.74 [31] μg/10^7 cells | 2–4 times
